Experimental findings from US6262123A, “Ortho-substituted benzoylguanidines, process for their preparation, their use as a medicament or diagnostic, and medicament comprising them” (Aventis Pharma Deutschland GmbH, priority 1996, dated 2001) are described below.

Where a name gives a salt, the structure may show the parent alone.

The test concerns the target T1, rabbit erythrocyte Na^+ /H^+ exchanger (Oryctolagus cuniculus, UniProt P23791).
T1 construct: determine the Na^+ influx into the erythrocytes by way of Na^+ /H^+ exchange; endogenous in cells; host or cells: erythrocytes in whole blood of cholesterol-fed New Zealand White rabbits
Description: Inhibition of the rabbit erythrocyte Na^+ /H^+ exchanger (amiloride-sensitive Na^+ influx, flame photometry). Format: cell-based, New Zealand White rabbits. The conditions noted are these: erythrocytes of cholesterol-fed rabbits; pH 7.4, 37° C., hyperosmolar salt/sucrose medium. From the text: Inhibition of the rabbit erythrocyte Na^+ /H^+ exchanger New Zealand White rabbits (Ivanovas) were given a standard diet containing 2% cholesterol for six weeks in order to activate the Na^+ /H^+ exchange and thereby render it possible to use flame photometry to determine the Na^+ influx into the erythrocytes by way of Na^+ /H^+ exchange. The blood was withdrawn from the aural arteries and rendered incoagulable by adding 25 IU of potassium heparin. One part of each sample was used for determining the hematocrit in duplicate by means of centrifugation. Aliquots of in each case 100 μl were used for measuring the initial Na^+ content of the erythrocytes.
In order to determine the amiloride-sensitive sodium influx, 100 μl of each blood sample were in each case incubated, at pH 7.4 and 37° C., in 5 ml of a hyperosmolar salt/sucrose medium (mmol/l: 140 NaCl, 3 KCl, 150 sucrose, 0.1 ouabain, 20 tris(hydroxymethyl)aminomethane). After that, the erythrocytes were washed three times with an ice-cold solution of MgCl2 /ouabain (mmol/l: 112 MgCl2, 0.1 ouabain) and hemolyzed in 2.0 ml of distilled water. The intracellular sodium content was determined by flame photometry.
The net influx of Na^+ was calculated from the difference between the initial sodium values and the sodium content of the erythrocytes after incubation. The amiloride-inhibitable sodium influx was obtained from the difference in the sodium content of the erythrocytes after incubating with and without 3×10^-4 mol/l amiloride. The same procedure was adopted in the case of the novel compounds.

T1 sequence (P23791 whole entry): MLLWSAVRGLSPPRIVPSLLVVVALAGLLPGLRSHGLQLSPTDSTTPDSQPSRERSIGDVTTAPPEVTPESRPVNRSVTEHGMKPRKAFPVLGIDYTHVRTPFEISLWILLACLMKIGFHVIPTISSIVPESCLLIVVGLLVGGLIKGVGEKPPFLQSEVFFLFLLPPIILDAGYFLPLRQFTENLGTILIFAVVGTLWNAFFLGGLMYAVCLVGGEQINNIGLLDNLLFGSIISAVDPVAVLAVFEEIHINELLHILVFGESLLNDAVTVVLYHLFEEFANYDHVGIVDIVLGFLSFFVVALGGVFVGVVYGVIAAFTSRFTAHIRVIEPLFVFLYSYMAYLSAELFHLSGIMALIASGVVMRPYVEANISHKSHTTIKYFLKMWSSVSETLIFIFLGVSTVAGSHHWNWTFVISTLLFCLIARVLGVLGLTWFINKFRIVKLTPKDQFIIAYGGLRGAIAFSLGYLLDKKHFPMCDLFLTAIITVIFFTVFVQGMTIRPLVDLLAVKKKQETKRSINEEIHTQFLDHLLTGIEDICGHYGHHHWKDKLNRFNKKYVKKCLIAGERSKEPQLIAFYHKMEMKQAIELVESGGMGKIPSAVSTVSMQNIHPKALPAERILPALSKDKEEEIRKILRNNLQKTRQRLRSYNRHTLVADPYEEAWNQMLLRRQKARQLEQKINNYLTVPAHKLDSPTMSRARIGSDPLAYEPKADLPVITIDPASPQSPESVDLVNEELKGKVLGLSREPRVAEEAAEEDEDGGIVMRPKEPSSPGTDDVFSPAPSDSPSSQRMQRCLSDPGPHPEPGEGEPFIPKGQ

The term IC50 denotes the concentration that gives 50% inhibition. With `NC(N)=NC(=O)c1cc(C(F)(F)F)c(O)cc1Cl` [Example 4, 2-Chloro4-hydroxy-5-trifluoromethylbenzoylguanidine hydrochloride], the IC50 stood at 0.14 µM. For `NC(N)=NC(=O)c1cc(I)c(O)c(I)c1Cl` [Example 3, 2-Chloro4-hydroxy-3,5-diiodobenzoylguanidine hydrochloride], the IC50 came to 0.1 µM.

Take `NC(N)=NC(=O)c1ccc(O)cc1Cl` [Example 1, 2-Chloro4-hydroxybenzoylguanidine hydrochloride]: the IC50 stood at 4 µM. On to `NC(N)=NC(=O)c1cc(I)c(O)cc1Cl` [Example 2, 2-Chloro-4-hydroxy-5-iodobenzoylguanidine hydrochloride], for which the IC50 worked out at 0.24 µM.
